The values below come from ChEMBL document CHEMBL1144085, “DNA polymerase beta inhibitors from Sandoricum koetjape” (J Nat Prod, 1999).

In assay [1] the target is DNA polymerase beta (Rattus norvegicus) (UniProt P06766). In words: Activity of rat DNA polymerase beta using variable levels of DNA template primer by Lineweaver-Burke plot.
Assay [2] shares this target. Description: Activity of rat DNA polymerase beta using variable levels of [3H]TTP substrate by Lineweaver-Burke plot.
In a further assay the target is DNA polymerase beta (Rattus norvegicus, UniProt P06766). In words: (§1) Inhibition of rat DNA polymerase beta.
The target in assay [3] is DNA polymerase beta (Rattus norvegicus) (UniProt P06766). The assay is described as §1.

Activity calls are given as the source filed them. The calls are words filed in the database; no cut-off is given here.

One may read the IC50 as the concentration that inhibits the measured activity by half. Read a low IC50 as inhibition by little substance. In assay [1], `CC1(C)[C@H](O)CC[C@]2(C)[C@H]3CC=C4[C@@H]5C[C@](C)(C(=O)O)CC[C@]5(C)CC[C@@]4(C)[C@]3(C)CC[C@@H]12` [KATONIC ACID] displayed a Kii of 11 µM and a Kis of 4.2 µM. In addition, in assay [2], the Kii came out at 24 µM and the Kis amounted to 60 µM. Also, half-maximal inhibition against DNA polymerase beta (IC50) required 36 µM.
For `C=C(C)[C@@H]1CC[C@]2(C)[C@H](CC=C3[C@@H]4C[C@@](C)(C(=O)O)CC[C@]4(C)CC[C@]32C)[C@@]1(C)CCC(=O)O` [KOETJAPIC ACID], the Kii in assay [1] was found to be 18 µM; in assay [2], 11 µM. Also, the values for the Kis in assay [1] and in assay [2] were 5.6 µM and 24 µM, respectively. Also, 20 µM corresponded to half-maximal inhibition on DNA polymerase beta (IC50).
Regarding `COC(=O)[C@]1(C)CC[C@]2(C)CC[C@]3(C)C(=CC[C@@H]4[C@@]5(C)CCC(=O)C(C)(C)[C@@H]5CC[C@]43C)[C@@H]2C1`, the result in assay [3] was inactive.
On the same count and under the same terms, for `CC1(C)C(=O)CC[C@]2(C)[C@H]3CC=C4[C@@H]5C[C@](C)(C(N)=O)CC[C@]5(C)CC[C@@]4(C)[C@]3(C)CC[C@@H]12` the value was “inactive”.
Consider `CC1(C)/C(=N\O)CC[C@]2(C)[C@H]3CC=C4[C@@H]5C[C@](C)(C(=O)O)CC[C@]5(C)CC[C@@]4(C)[C@]3(C)CC[C@@H]12`, for which, in assay [2], the Kii was 10 µM and the Kis was determined as 16 µM. For the same molecule, the concentration for half-maximal inhibition (IC50) against DNA polymerase beta was determined as 16 µM.
On to `CO/N=C1/CC[C@]2(C)[C@H]3CC=C4[C@@H]5C[C@](C)(C(=O)O)CC[C@]5(C)CC[C@@]4(C)[C@]3(C)CC[C@H]2C1(C)C`, for which, in assay [1], the Kii was 35 µM and the Kis is 9.1 µM. In assay [2], the Kii was found to be 35 µM and the Kis is 73 µM. Further, the IC50 at DNA polymerase beta came to 36 µM.
With `CCN(CC)C(=O)[C@]1(C)CC[C@]2(C)CC[C@]3(C)C(=CC[C@@H]4[C@@]5(C)CCC(=O)C(C)(C)[C@@H]5CC[C@]43C)[C@@H]2C1`, the outcome in assay [3] was inactive.
`COC(=O)[C@]1(C)CC[C@]2(C)CC[C@]3(C)C(=CC[C@@H]4[C@@]5(C)CC[C@@H](O)C(C)(C)[C@@H]5CC[C@]43C)[C@@H]2C1`: the outcome in assay [3] was inactive.
On to `CC(C)(C)NC(=O)[C@]1(C)CC[C@]2(C)CC[C@]3(C)C(=CC[C@@H]4[C@@]5(C)CCC(=O)C(C)(C)[C@@H]5CC[C@]43C)[C@@H]2C1`, for which the result in assay [3] was inactive.
In assay [1], `CC1(C)/C(=N\OCc2ccccc2)CC[C@]2(C)[C@H]3CC=C4[C@@H]5C[C@](C)(C(=O)O)CC[C@]5(C)CC[C@@]4(C)[C@]3(C)CC[C@@H]12` gave a Kii of 24 µM and a Kis of 37 µM. In assay [2], this molecule came in with a Kii of 22 µM and a Kis of 69 µM. This molecule registered an IC50 against DNA polymerase beta of 35 µM.
Taken in the same sequence, the figures for `CC1(C)C(=O)CC[C@]2(C)[C@H]3CC=C4[C@@H]5C[C@](C)(C(=O)O)CC[C@]5(C)CC[C@@]4(C)[C@]3(C)CC[C@@H]12` were 50 µM, 5.5 µM, 9.1 µM, 60 µM and 22 µM.
For the molecule `CCCCNC(=O)[C@]1(C)CC[C@]2(C)CC[C@]3(C)C(=CC[C@@H]4[C@@]5(C)CCC(=O)C(C)(C)[C@@H]5CC[C@]43C)[C@@H]2C1`, in assay [3], the result was inactive.
For the molecule `CCOC(=O)[C@]1(C)CC[C@]2(C)CC[C@]3(C)C(=CC[C@@H]4[C@@]5(C)CCC(=O)C(C)(C)[C@@H]5CC[C@]43C)[C@@H]2C1`, in assay [3], the outcome was inactive.
